Data as given in patent publication US20240261297A1, “ANTI-CDK INHIBITORS FOR CANCER TREATMENT” (St. John's Cancer Institute, priority 2021, published 2024).

Experiments:
[1] = system: MDA-MB-231 breast cancer xenograft; assay: Anti-tumor efficacy in MDA-MB-231 breast cancer xenograft model; assay type: in vivo, mice; conditions: p<0.0001
Method: (§1) Anti-tumor efficacy of I-3 was evaluated in a MDA-MB-231 breast cancer xenograft model. Briefly, mice with MDA-MB-231 tumors were randomized to three treatment groups: control (Vehicle, n=8), 1-3 IV (10 mg/kg, n=8) and 1-3 PO (10 mg/kg, n=8) on a schedule of 14 days for daily (PO) or twice weekly (IV). Oral gavage treatments were formulated in 0.1% Tween 80 and 99.9% of 0.5% (w/v) of methyl cellulose in water. Intravenous treatments were formulated in 5% (v/v) DMSO, 2.5% (v/v) absolute ethanol, 2.5% (v/v) Solutol, and 90% Normal saline. Tumor growth was measured twice weekly by using a digital vernier caliper and high resolution images of tumor bearing mice were captured using a digital camera at weekly intervals of the study (Days 0, 7 and 14). Tumor volume was calculated as follows:
Tumor Volume=[Length(L)×Width(W)^2]/2
where length (L) is the largest diameter of the tumor and width (W) is the smallest diameter of the tumor.

[2] = Snapshot plasma pharmacokinetics in mice; assay type: in vivo; conditions: mouse, in vivo; for AUC(0-inf): AUCinf
Method: Evaluation of pharmacokinetic (PK) parameters and efficacy of I-3 in a xenograft model was carried out in mice. […] Briefly, mice were treated with 5 mg/kg of 1-3 or merioline-3. Plasma was then collected at different time points and measured for drug concentration. […] PK parameters of I-3 was also compared to a panel of CDK inhibitors (Table 13). […] Likewise, Ribociclib has a better Cmax than I-3, but it is primarily a CDK4/6 inhibitor.

[3] = system: caspase 3/7 in PLC/PRF/5 cells; assay: Caspase Glo 3/7 activity assay in PLC/PRF/5 cells; assay type: cell-based
CDK6/cyclin D1 = CDK6/cyclin D1 (Homo sapiens, UniProt Q00534); assay: Radioisotope-based protein kinase assay; assay type: biochemical; conditions: 10 μM ATP, 3-fold dilution from 10 μM
CDK6/cyclin D1, sequence (Q00534 whole entry, canonical isoform): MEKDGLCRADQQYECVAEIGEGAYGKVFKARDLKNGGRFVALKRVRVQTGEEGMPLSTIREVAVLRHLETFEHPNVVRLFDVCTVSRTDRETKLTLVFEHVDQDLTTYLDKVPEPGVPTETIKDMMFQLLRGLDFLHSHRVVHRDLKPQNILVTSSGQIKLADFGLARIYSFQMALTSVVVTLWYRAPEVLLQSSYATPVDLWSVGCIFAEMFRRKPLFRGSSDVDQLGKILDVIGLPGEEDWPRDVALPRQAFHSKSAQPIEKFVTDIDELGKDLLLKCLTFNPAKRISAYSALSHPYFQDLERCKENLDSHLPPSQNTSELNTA
CDK6/cyclin D1, sequence (P24385 whole entry partner, canonical isoform): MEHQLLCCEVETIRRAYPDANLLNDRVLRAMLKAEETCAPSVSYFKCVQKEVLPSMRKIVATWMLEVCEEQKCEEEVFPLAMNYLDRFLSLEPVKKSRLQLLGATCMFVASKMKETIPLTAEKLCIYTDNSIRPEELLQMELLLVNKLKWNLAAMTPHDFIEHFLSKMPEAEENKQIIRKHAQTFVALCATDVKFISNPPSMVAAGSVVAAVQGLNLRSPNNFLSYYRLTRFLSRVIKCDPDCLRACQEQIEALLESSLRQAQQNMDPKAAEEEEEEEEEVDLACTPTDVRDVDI
Method: (§2) A series of test compounds were selected for initial screening against CDK isoforms. Protein kinase assays were performed with gold standard radioisotope-based assay formats to measuring enzyme activity remaining in presence and absence of inhibitor.

CDK7/cyclin H = CDK7/cyclin H (Homo sapiens, UniProt P50613); assay: Radioisotope-based protein kinase assay; assay type: biochemical; conditions: 10 μM ATP, 3-fold dilution from 10 μM
CDK7/cyclin H, sequence (P50613 whole entry): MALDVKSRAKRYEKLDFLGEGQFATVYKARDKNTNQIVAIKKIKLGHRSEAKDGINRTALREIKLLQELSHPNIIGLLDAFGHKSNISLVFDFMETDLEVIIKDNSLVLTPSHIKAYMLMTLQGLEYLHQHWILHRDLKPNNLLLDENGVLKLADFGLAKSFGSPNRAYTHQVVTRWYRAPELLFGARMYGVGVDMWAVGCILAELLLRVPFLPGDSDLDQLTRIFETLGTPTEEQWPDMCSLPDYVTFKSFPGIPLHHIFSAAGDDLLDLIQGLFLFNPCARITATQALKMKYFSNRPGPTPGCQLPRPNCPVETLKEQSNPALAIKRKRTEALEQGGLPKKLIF
CDK7/cyclin H, sequence (P51946 whole entry partner): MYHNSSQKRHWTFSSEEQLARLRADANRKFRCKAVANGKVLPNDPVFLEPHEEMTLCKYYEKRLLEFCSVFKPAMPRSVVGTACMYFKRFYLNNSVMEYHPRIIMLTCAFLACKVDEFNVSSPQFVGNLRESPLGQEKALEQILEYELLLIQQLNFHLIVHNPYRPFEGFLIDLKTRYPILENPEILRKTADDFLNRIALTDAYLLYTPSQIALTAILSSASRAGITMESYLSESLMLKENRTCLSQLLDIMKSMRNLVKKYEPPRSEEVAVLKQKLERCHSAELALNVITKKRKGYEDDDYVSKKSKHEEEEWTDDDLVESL
CDK7/cyclin H, sequence (P51948 whole entry partner): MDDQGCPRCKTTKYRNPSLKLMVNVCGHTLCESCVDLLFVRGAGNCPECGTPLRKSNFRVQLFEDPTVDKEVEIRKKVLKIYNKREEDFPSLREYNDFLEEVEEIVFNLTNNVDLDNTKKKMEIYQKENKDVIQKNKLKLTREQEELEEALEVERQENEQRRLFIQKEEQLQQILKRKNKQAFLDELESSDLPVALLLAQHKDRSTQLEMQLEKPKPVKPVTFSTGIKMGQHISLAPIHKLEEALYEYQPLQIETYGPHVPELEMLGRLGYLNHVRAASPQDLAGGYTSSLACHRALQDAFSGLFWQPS
Method: as §2

CDK1/cyclin A = CDK1/cyclin A (Homo sapiens, UniProt P06493); assay: Radioisotope-based protein kinase assay; assay type: biochemical; conditions: 10 μM ATP, 3-fold dilution from 10 μM
Method: as §2

CDK9/cyclin T1 = CDK9/cyclin T1 (Homo sapiens, UniProt P50750); assay: Radioisotope-based protein kinase assay; assay type: biochemical; conditions: 10 μM ATP, 3-fold dilution from 10 μM
CDK9/cyclin T1, sequence (P50750 whole entry): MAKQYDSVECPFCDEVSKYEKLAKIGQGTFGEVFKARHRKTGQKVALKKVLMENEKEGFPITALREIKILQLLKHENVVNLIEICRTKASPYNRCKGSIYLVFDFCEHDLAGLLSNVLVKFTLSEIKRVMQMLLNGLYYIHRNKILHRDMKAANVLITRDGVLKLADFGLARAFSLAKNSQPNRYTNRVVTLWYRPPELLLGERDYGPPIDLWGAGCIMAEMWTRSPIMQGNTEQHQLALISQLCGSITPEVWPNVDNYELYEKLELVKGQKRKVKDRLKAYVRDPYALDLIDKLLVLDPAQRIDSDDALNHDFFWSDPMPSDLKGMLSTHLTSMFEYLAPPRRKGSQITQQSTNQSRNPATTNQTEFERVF
CDK9/cyclin T1, sequence (O60563 whole entry partner): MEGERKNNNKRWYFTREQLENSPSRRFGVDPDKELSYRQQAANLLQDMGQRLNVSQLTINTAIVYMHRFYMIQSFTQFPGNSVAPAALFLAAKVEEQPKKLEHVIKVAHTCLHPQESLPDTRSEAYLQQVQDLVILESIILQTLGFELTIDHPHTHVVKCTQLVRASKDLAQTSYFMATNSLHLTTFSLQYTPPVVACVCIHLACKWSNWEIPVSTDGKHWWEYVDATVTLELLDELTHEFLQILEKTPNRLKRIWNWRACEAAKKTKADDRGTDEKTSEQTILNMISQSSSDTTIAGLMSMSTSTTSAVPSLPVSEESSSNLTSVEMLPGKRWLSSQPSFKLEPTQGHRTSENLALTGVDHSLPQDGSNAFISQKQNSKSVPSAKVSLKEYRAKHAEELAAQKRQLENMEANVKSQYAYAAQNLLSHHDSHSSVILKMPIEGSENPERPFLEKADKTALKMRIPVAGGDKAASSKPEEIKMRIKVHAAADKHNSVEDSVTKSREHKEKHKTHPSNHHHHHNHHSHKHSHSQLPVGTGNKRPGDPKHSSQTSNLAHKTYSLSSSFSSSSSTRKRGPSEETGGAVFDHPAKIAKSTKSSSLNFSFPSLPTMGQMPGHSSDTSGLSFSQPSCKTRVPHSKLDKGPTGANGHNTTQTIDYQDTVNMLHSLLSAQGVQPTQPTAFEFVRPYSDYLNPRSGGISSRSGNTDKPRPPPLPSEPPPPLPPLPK
Method: as §2

CDK5/p25 = CDK5/p25 (Homo sapiens, UniProt Q00535); assay: Radioisotope-based protein kinase assay; assay type: biochemical; conditions: Table 1; 10 μM ATP
CDK5/p25, sequence (Q00535 whole entry): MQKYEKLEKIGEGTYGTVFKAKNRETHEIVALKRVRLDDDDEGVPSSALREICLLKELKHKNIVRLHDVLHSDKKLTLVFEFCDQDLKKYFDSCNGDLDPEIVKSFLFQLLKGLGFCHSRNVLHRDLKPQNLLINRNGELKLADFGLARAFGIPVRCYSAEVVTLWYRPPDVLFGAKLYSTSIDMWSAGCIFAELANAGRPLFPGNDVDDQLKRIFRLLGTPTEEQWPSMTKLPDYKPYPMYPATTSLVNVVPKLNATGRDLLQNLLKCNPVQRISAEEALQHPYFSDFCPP
CDK5/p25, sequence (Q15078 99-307 partner limits assumed): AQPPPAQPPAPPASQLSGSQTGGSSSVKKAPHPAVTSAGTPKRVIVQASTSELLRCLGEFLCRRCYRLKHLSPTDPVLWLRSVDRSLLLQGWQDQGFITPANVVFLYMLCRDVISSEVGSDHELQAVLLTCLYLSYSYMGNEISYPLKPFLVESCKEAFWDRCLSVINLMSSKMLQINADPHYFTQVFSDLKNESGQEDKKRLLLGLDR
Method: as §2

CDK1/cyclin B = CDK1/cyclin B (Homo sapiens, UniProt P06493); assay: Radioisotope-based protein kinase assay; assay type: biochemical; conditions: 10 μM ATP, 3-fold dilution from 10 μM
CDK1/cyclin B, sequence (P06493 whole entry): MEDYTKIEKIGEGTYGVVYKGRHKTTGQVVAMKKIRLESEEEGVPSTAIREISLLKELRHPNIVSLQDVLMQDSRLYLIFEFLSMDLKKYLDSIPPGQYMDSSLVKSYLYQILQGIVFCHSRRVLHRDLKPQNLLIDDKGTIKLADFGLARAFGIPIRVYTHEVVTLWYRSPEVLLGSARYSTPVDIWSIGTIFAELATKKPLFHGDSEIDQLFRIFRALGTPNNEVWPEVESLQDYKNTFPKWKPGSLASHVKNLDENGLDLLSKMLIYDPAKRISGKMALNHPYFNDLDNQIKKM
CDK1/cyclin B, sequence (P14635 whole entry partner): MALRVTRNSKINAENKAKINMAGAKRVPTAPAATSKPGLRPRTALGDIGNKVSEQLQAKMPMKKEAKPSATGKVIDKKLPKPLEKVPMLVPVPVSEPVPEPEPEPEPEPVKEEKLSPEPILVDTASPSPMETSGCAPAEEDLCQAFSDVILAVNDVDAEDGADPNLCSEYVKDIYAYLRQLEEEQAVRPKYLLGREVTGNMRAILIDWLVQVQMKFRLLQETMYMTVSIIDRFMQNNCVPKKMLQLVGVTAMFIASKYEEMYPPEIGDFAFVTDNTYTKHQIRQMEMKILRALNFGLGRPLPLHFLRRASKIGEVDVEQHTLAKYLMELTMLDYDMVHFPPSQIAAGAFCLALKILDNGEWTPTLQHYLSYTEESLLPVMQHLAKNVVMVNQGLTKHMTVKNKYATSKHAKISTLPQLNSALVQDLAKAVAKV
Method: as §2

CDK4/cyclin D1 = CDK4/cyclin D1 (Homo sapiens, UniProt P11802); assay: Radioisotope-based protein kinase assay; assay type: biochemical; conditions: 10 μM ATP, 3-fold dilution from 10 μM
CDK4/cyclin D1, sequence (P11802 whole entry): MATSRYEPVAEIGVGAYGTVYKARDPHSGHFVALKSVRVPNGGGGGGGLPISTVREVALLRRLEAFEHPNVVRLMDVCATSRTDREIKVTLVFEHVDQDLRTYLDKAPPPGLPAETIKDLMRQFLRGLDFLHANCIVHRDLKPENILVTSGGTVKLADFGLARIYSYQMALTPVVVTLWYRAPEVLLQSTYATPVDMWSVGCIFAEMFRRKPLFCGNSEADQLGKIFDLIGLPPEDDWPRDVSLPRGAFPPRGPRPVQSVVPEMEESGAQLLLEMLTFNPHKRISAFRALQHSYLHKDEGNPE
CDK4/cyclin D1, sequence (P24385 whole entry partner): as the sequence (P24385 whole entry partner, canonical isoform) above
Method: as §2

CDK2/cyclin E = CDK2/cyclin E (Homo sapiens, UniProt P24941); assay: Radioisotope-based protein kinase assay; assay type: biochemical; conditions: 10 μM ATP, 3-fold dilution from 10 μM
Method: as §2

CDK2/cyclin A = CDK2/cyclin A (Homo sapiens, UniProt P24941); assay: Radioisotope-based protein kinase assay; assay type: biochemical; conditions: 10 μM ATP, 3-fold dilution from 10 μM
Method: as §2

[4] = In vivo safety (body weight, complete blood counts) in xenograft study; parameters: species or system mice
Method: as §1, with “follows: […]” for “follows:”
At the end of the study, blood samples were collected from the animals for analysis of complete blood counts (CBC) using an automated hematology analyser (ADVIA2120, Siemens Ltd.). […] Once daily oral doses of 10 mg/Kg and twice weekly IV doses of 10 mg/kg were well-tolerated by the animals during the course of the treatment, with no changes in body weight or blood counts compared to vehicle control over the course of the study (Tables 14 and 15).

Nc1nccc(-c2c[nH]c3nccc(Oc4cccc(F)c4)c23)n1 [I-3, 4-(4-(3-fluorophenoxy)-1H-pyrrolo[2,3-b]pyridin-3-yl)pyrimidin-2-amine]
tumor growth inhibition (TGI) ([1]; IV 10 mg/kg twice weekly, 14 days, vs control): 60% | tumor growth inhibition (TGI) ([1]; PO 10 mg/kg once daily, end of two weeks): 54% | Tmax [2]: 3.1 h | AUC(0-inf) [2]: 1.87 µg·h/mL | Cmax ([2]; Cmax): 0.483 µg/mL | Tmax ([2]; iv, 5 mg/kg): 0.0833 h | half-life ([2]; iv, 5 mg/kg): 1.15 h | AUC(0-inf) ([2]; iv, 5 mg/kg): 3.7 µg·h/mL | Cmax ([2]; iv, 5 mg/kg, Cmax): 5.08 µg/mL | Cmax ([2]; po, 5 mg/kg): 0.178 µg/mL | Tmax ([2]; po, 5 mg/kg): 0.5 h | half-life ([2]; po, 5 mg/kg): 3.1 h | AUC(0-inf) ([2]; po, 5 mg/kg): 1.49 µg·h/mL | Caspase 3/7 activation (comparison) [3]: greater activation of caspase 3/7 by 1-3 than by PF-06873600 | IC50 ([3]; Homo sapiens): 2450 nM | IC50 (CDK6/cyclin D1): 285 nM | IC50 (CDK7/cyclin H): 18 nM | IC50 (CDK1/cyclin A): 6 nM | IC50 (CDK9/cyclin T1): 7 nM | IC50 (CDK5/p25): 8 nM | IC50 (CDK1/cyclin B): 8 nM | IC50 (CDK4/cyclin D1): 414 nM | IC50 (CDK2/cyclin E): 4 nM | IC50 (CDK2/cyclin A): 4 nM | Body Weight, mean ± SE ([4]; IV 10 mg/kg, Day 0): 22.1 ± 0.6 g | Body Weight, mean ± SE ([4]; IV 10 mg/kg, Day 7): 22.3 ± 1.0 g | Body Weight, mean ± SE ([4]; IV 10 mg/kg, Day 14): 22.9 ± 0.7 g | Hematocrit (Mean ± SE) ([4]; IV 10 mg/kg, end of study): 38.4 ± 3.7% | Hemoglovin (Mean ± SE) ([4]; IV 10 mg/kg, end of study): 12.8 ± 0.8 g/dL | Mean corpuscular hemoglobin (Mean ± SE) ([4]; IV 10 mg/kg, end of study): 15.2 ± 0.2 pg | Mean corpuscular hemoglobin concentration (Mean ± SE) ([4]; IV 10 mg/kg, end of study): 30.3 ± 0.2 g/dL | Mean corpuscular volume (Mean ± SE) ([4]; IV 10 mg/kg, end of study): 50.2 ± 0.3 fL | Platelets (Mean ± SE) ([4]; IV 10 mg/kg, end of study): 802.4 ± 107.9 10^3 cells/μL | Red blood cells (Mean ± SE) ([4]; IV 10 mg/kg, end of study): 8.4 ± 0.5 10^6 cells/μL | White blood cells (Mean ± SE) ([4]; IV 10 mg/kg, end of study): 22.9 ± 8.3 10^3 cells/μL | Tolerability ([4]; PO 10 mg/Kg once daily and IV 10 mg/kg twice weekly, 14 days): well-tolerated | Body Weight, mean ± SE ([4]; PO 10 mg/kg, Day 0): 21.6 ± 0.4 g | Body Weight, mean ± SE ([4]; PO 10 mg/kg, Day 7): 20.9 ± 0.9 g | Body Weight, mean ± SE ([4]; PO 10 mg/kg, Day 14): 21.6 ± 0.9 g | Hematocrit (Mean ± SE) ([4]; PO 10 mg/kg, end of study): 34.2 ± 0.9% | Hemoglovin (Mean ± SE) ([4]; PO 10 mg/kg, end of study): 10.6 ± 0.3 g/dL | Mean corpuscular hemoglobin (Mean ± SE) ([4]; PO 10 mg/kg, end of study): 15.3 ± 0.1 pg | Mean corpuscular hemoglobin concentration (Mean ± SE) ([4]; PO 10 mg/kg, end of study): 31.1 ± 0.2 g/dL | Mean corpuscular volume (Mean ± SE) ([4]; PO 10 mg/kg, end of study): 44.8 ± 4.1 fL | Platelets (Mean ± SE) ([4]; PO 10 mg/kg, end of study): 762.1 ± 99.3 10^3 cells/μL | Red blood cells (Mean ± SE) ([4]; PO 10 mg/kg, end of study): 6.9 ± 0.2 10^6 cells/μL | White blood cells (Mean ± SE) ([4]; PO 10 mg/kg, end of study): 36.6 ± 6.8 10^3 cells/μL | Complete blood counts vs control group ([4]; end of study, IV and PO 10 mg/kg): no significant differences
